Measurements: article PMC4899609, “Spectroscopic and Docking Studies on the Binding of Liquiritigenin with Hyaluronidase for Antiallergic Mechanism” (Scientifica, 2016)

Experiments:
Hyaluronidase (HAase) [1] = biological target: T1, Hyaluronidase (HAase); experiment: modified Morgan-Elson colorimetric assay (DMAB, […] nm); type: biochemical; details: hyaluronic acid sodium 0.5 mg mL^−1; HAase 500 U mL^−1; CaCl2 12.5 mM; 37 °C
T1 construct: gene SPAM1; ovine testis or bacterial possible; human HYAL1 2PE4 was only the docking model

Hyaluronidase (HAase) [2] = tested on: T1, Hyaluronidase (HAase); experiment: intrinsic fluorescence quenching, excitation […] nm; type: binding; details: 293 K; sodium phosphate buffer pH 7.4; HAase 2.0 × 10^−6 mol L^−1; n 1.0623; double-log

## O=C1C[C@@H](c2ccc(O)cc2)Oc2cc(O)ccc21 [liquiritigenin]
Hyaluronidase (HAase) [1]
  IC50: 680 ± 43 µM
Hyaluronidase (HAase) [2]
  K a: 39537 L/mol
